Each structure is given as a SMILES string. ≈ marks a conversion by molar mass, not a printed value.

As usually defined, the IC50 is the point on the concentration scale where inhibition reaches its midpoint. Read a low IC50 as greater potency in that assay.

This test has as its system A549. As to the kind of experiment: Antiproliferative activity against human A549 cells incubated for 96 hrs by MTT assay. The class given is functional, cell-based. Conditions: A549, 96 h. (In general: Formazan colour is commonly taken as a measure of viable cells.)
`COC(=O)/C=C1/SC(N2N=C(c3cc4ccccc4o3)CC2c2cccc(Br)c2)=NC1=O` (stereo unspecified) displayed an IC50 of 4.29 µg/mL (≈ 8.41 µM). On to `CCOC(=O)/C=C1/SC(N2N=C(c3cc4ccccc4o3)CC2c2cccc(Br)c2)=NC1=O` (stereo unspecified), for which the IC50 is greater than 5 µg/mL.

For `COC(=O)/C=C1/SC(N2N=C(c3cc4ccccc4o3)CC2c2ccc(F)cc2)=NC1=O` (stereo unspecified), 0.808 µg/mL (≈ 1.8 µM) corresponded to half-maximal inhibition (IC50). To `CCOC(=O)/C=C1/SC(N2N=C(c3cc4ccccc4o3)CC2c2ccc(OC)cc2)=NC1=O` (stereo unspecified) belongs 1.21 µg/mL (≈ 2.54 µM). Consider `CCOC(=O)/C=C1/SC(N2N=C(c3cc4ccccc4o3)CC2c2ccc(OC)c(OC)c2)=NC1=O` (stereo unspecified), for which half-maximal inhibition (IC50) required 3.42 µg/mL (≈ 6.76 µM). Compared with the last molecule, the IC50 is about 2.8-fold higher. `COC(=O)/C=C1/SC(N2N=C(c3cc4ccccc4o3)CC2c2ccc(Cl)cc2)=NC1=O` (stereo unspecified) had an IC50 of 1.08 µg/mL (≈ 2.31 µM).

For `CCOC(=O)/C=C1/SC(N2N=C(c3cc4ccccc4o3)CC2c2ccc(F)cc2)=NC1=O` (stereo unspecified), the IC50 came to 0.93 µg/mL (≈ 2.01 µM). To `CCOC(=O)/C=C1/SC(N2N=C(c3cc4ccccc4o3)CC2c2ccc(Cl)cc2)=NC1=O` (stereo unspecified) belongs greater than 5 µg/mL; to `COC(=O)/C=C1/SC(N2N=C(c3cc4ccccc4o3)CC2c2ccc(OC)cc2)=NC1=O` (stereo unspecified), 2.44 µg/mL (≈ 5.3 µM); to `COC(=O)/C=C1/SC(N2N=C(c3cc4ccccc4o3)CC2c2ccc(OC)c(OC)c2)=NC1=O` (stereo unspecified), 0.967 µg/mL (≈ 1.97 µM). To `CNC(=O)c1cc(Oc2ccc(NC(=O)Nc3ccc(Cl)c(C(F)(F)F)c3)cc2)ccn1` [SORAFENIB] belongs 3.78 µg/mL (≈ 8.13 µM).

Values taken from ChEMBL document CHEMBL4184230, “Design, synthesis and biological evaluation of novel pyrazolo-oxothiazolidine derivatives as antiproliferative agents against human lung cancer cell line A549” (Bioorg Med Chem Lett, 2018).
